Test results published in US6716849B1, “Substituted phenylcyclohexane carboxylic acid amides that have an adenosine uptake inhibiting effect” (Bayer Aktiengesellschaft, priority 2001, dated 2004).
≈ marks a conversion by molar mass, not a printed value.

What was measured:
[1] = Determination of the solubility (precipitation method, physiological saline, HPLC); assay type: physicochemical; conditions: saline or isotonic, kinetic from dmso stock, 25° C., 24 hours equilibration
Experimental: 1. Determination of the Solubility
To determine the solubility, a precipitation method was used:
10 mg of the test substance are completely dissolved in 50 μl of DMSO (stock solution). 20 μl of this solution are added to 2000 μl of physiological saline. This solution, in turn, is shaken at 25° C. in a Thermomixer Comfort (from Eppendorf) at 1400 rpm for 24 hours for equilibration.
The precipitated fractions of the test substance are centrifuged off using a Biofuge 15 from Heraeus at 14,000 rpm for 5 min. 1300 μl of the supernatant are once more centrifuged using a Microfuge from Beckmann at 45,000 rpm=125,000 g.
10 μl of this centrifigation supernatant are then diluted with 1000 μl of DMSO, and this solution is measured by HPLC (Hewlett Packard 1090, method, gradient from 100% PBS buffer pH=4 to 10% buffer/90% acetonitrile over a period of 15 min, column: RPI8; PBS buffer pH=4 is a physiological saline solution adjusted to pH=4 using phosphate buffer).
Using a calibration curve, the measured peak area of the HPLC measurement is converted into substance concentration. For the calibration curve, 20 μl of the stock solution are diluted successively with DMSO such that 5 concentrations of 2.5 mg/l to 2000 mg/l result. These solutions are likewise measured by HPLC (see method above), and the peak areas are plotted as a function of the concentrations.

subdural haematoma (SDH) = assay: Subdural haematoma in rats (SDH), infarct volume; assay type: in vivo; conditions: rat SDH, 0.001 mg/(kg×h) i.v. infusion
Experimental: The neuroprotective activity of the compounds according to the invention was determined in the animal model of transient occlusion of the middle cerebral artery (tMCA-O) and the subdural haematoma (SDH). 5. Subdural Haematoma in Rats (SDH) This rodent model (rat) imitates pathophysiology and cerebral pathology of the blunt skull-brain trauma with subdural hemorrhage and development of a subdural haematoma in man. (Neurosurgery 190, 27,433-439). Under anaesthesia, the animals are unilaterally injected subdurally with their own blood. Under the haematoma, an infarct forms. The substance is administered according to different schedules and via different administration routes (i.v., i.p.). The size of the infarct is determined as described in the model of the transient focal ischaemia in rats (tMCA-O).

[2] = biological target: T1, adenosine transport protein from calf cortex (Bos taurus, UniProt A0ACM8Q8F7); assay: Binding to an adenosine transport protein from calf cortex (displacement of radio-labelled NBTI); conditions: membrane preparation of cerebral calf cortex, read-out: Ki, inhibition of NBTI-binding
T1 construct: a membrane preparation of cerebral calf cortex is used, which expresses the relevant adenosine transporter; from tissue; host or cells: cerebral calf cortex, membrane preparation
T1 sequence (A0ACM8Q8F7 1-456): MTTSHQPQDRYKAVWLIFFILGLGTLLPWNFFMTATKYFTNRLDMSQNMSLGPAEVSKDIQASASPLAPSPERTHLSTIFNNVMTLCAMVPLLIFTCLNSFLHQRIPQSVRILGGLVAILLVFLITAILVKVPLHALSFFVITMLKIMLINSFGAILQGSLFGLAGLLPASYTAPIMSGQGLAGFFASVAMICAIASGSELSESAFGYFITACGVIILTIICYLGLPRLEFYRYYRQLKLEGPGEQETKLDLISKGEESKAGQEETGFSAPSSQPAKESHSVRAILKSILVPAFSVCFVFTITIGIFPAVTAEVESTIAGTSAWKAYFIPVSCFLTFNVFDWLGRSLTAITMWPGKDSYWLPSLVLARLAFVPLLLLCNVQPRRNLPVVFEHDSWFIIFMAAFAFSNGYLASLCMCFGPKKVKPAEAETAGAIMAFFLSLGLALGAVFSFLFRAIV
Text: 2. Binding of the Compounds According to the Invention to an Adenosine Transport Protein From Calf Cortex
The ability of substances to influence the adenosine uptake system is investigated firstly by determining the binding affinity of selected substances to an adenosine transport protein of the CNS and secondly by determining the inhibiting effect of the substances on functional adenosine uptake.
For the binding test, a membrane preparation of cerebral calf cortex is used, which expresses the relevant adenosine transporter. The binding affinity (Ki value) is determined by measuring the displacement of a specific radio-labelled ligand [nitrobenzylthioinosine (NBTI)] from the binding site in question by test substances. The binding site is the binding site on the transport protein which is relevant for the actual transport process. Thus, binding of test substances in this experiment results in a quantifiable release of bound radioactive NBTI which makes determination of the Ki value possible. (J. Neurochemistry 1982,39, 184-191).

[3] = system: transient occlusion of the middle cerebral artery (tMCA-O); assay: tMCA-O: transient occlusion of the middle cerebral artery, infarct volume; assay type: in vivo; conditions: rat tMCA-O, 0.001 mg/(kg×h) i.v. infusion, begun at start of reperfusion, evaluated after 2 days
Experimental: The neuroprotective activity of the compounds according to the invention was determined in the animal model of transient occlusion of the middle cerebral artery (tMCA-O) and the subdural haematoma (SDH). […] Under general anaesthesia (inhalation anaesthesia with isoflurane), the hairs in the lower anterior neck region are shaved off, in the dorsal position, the head is fixed, the skin is disinfected and the neck area is opened in the middle along the trachea. The right lateral neck muscles are severed bluntly and, together with the skin, pulled to the side (retractors) so that the common carotid artery is clearly visible. The common carotid artery is exposed towards the head up to the point where it branches into the internal carotid artery and the external carotid artery. Using surgical suture material, the common carotid artery (near the thorax) and the external carotid artery are tied off. Using a microclamp; the internal carotid artery is closed temporarily. […] After 2 days of post-operative survival, the volume of the cerebral infarct is determined with the aid of a computer-supported image analysis system using preproduced series of histological brain sections. The size of the infarct is evaluated differentially by cortex, striatum, hippocampus and other brain areas.

solubility at 24 h [1] | Ki [2] | SMILES | reduction of the infarct volume in comparison to control animals (subdural haematoma (SDH)) | reduction of the infarct volume in comparison to control animals [3]
176 µg/mL (≈ 311 µM) | 2 nM | NC(=O)[C@@H](NC(=O)[C@@H]1CCCC[C@H]1c1ccc(Cn2c(CN3CCOCC3)nc3cccnc32)cc1)c1ccccc1 [Example 3] | 30% | 81%
16 µg/mL (≈ 28.3 µM) | 2 nM | CN1CCN(c2nc3ccccc3n2Cc2ccc([C@@H]3CCCC[C@H]3C(=O)N[C@H](C(N)=O)c3ccccc3)cc2)CC1 [Example 5, (S)-N-{{(1R,2R)-2-{4-{[2-(4-Methyl-piperazin-1-yl)benzimidazol-1-yl]methyl}-phenyl}-cyclohex-1-yl}carbonyl}-phenylglycinamide] | – | 91%
– | – | Cl.NC(=O)[C@@H](NC(=O)[C@@H]1CCCC[C@H]1c1ccc(Cn2c(CN3CCOCC3)nc3ncccc32)cc1)c1ccccc1 [Example 4, (S)-N-{{(1R,2R)-{4-{2-[2-(Morpholin-4-yl-methyl)-1H-pyrido[2,3-d]imidazol-1-yl]methyl}-phenyl}-cyclohex-1-yl}carbonyl}-phenylglycinamide hydrochloride] | 45% | –
